Data taken from the supplement of paper PMC10307832.

Columns and labels:
Assay in all cases: relative viability (nuclei count vs DMSO), 5 days (fraction); higher = more cells survive
201T = tested on: 201T
Procedure, shortened: (§1)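 Medians of duplicate plates are given as relative viability. That measure is the nuclei count in treated wells divided by the count in vehicle wells. Counts were taken on 4× images of lung cancer cell lines in 1536-well plates, 5 days after pin-tool dosing the day after seeding with one drug alone or a fixed anchor-drug dose plus five library-drug doses (not always all listed) in √10 steps.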

COR-L 105 = tested on: COR-L 105
Procedure, shortened: as §1

ChaGo-K-1 = tested on: ChaGo-K-1
Procedure, shortened: as §1

EPLC-272H = tested on: EPLC-272H
Procedure, shortened: as §1

H3255 = tested on: H3255
Procedure, shortened: as §1

HCC-78 = tested on: HCC-78
Procedure, shortened: as §1

HCC-827 = tested on: HCC-827
Procedure, shortened: as §1

LC-2-ad = tested on: LC-2-ad
Procedure, shortened: as §1

LCLC-97TM1 = tested on: LCLC-97TM1
Procedure, shortened: as §1

NCI-H1666 = tested on: NCI-H1666
Procedure, shortened: as §1

NCI-H1915 = tested on: NCI-H1915
Procedure, shortened: as §1

NCI-H2087 = tested on: NCI-H2087
Procedure, shortened: as §1

NCI-H2126 = tested on: NCI-H2126
Procedure, shortened: as §1

NCI-H2347 = tested on: NCI-H2347
Procedure, shortened: as §1

NCI-H23 = tested on: NCI-H23
Procedure, shortened: as §1

NCI-H2405 = tested on: NCI-H2405
Procedure, shortened: as §1

NCI-H520 = tested on: NCI-H520
Procedure, shortened: as §1

NCI-H647 = tested on: NCI-H647
Procedure, shortened: as §1

NCI-H650 = tested on: NCI-H650
Procedure, shortened: as §1

NCI-H661 = tested on: NCI-H661
Procedure, shortened: as §1

PC-14 = tested on: PC-14
Procedure, shortened: as §1

RERF-LC-KJ = tested on: RERF-LC-KJ
Procedure, shortened: as §1

## COc1nc(C)cnc1NS(=O)(=O)c1cccnc1-c1ccc(-c2nnco2)cc1 [Zibotentan] + Nc1ncn([C@H]2C[C@H](O)[C@@H](CO)O2)c(=O)n1 [Decitabine] (partner 2 µM)
201T; first compound 0.08 µM
  relative viability: 0.841
201T; first compound 0.253 µM
  relative viability: 0.865
201T; first compound 0.8 µM
  relative viability: 0.855
201T; first compound 2.53 µM
  relative viability: 0.919
COR-L 105; first compound 0.08 µM
  relative viability: 0.634
COR-L 105; first compound 0.253 µM
  relative viability: 0.609
COR-L 105; first compound 0.8 µM
  relative viability: 0.711
COR-L 105; first compound 2.53 µM
  relative viability: 0.615
ChaGo-K-1; first compound 0.08 µM
  relative viability: 0.512
ChaGo-K-1; first compound 0.253 µM
  relative viability: 0.493
ChaGo-K-1; first compound 0.8 µM
  relative viability: 0.508
ChaGo-K-1; first compound 2.53 µM
  relative viability: 0.55
EPLC-272H; first compound 0.08 µM
  relative viability: 0.41
EPLC-272H; first compound 0.253 µM
  relative viability: 0.304
EPLC-272H; first compound 0.8 µM
  relative viability: 0.366
EPLC-272H; first compound 2.53 µM
  relative viability: 0.394
H3255; first compound 0.08 µM
  relative viability: 0.671
H3255; first compound 0.253 µM
  relative viability: 0.601
H3255; first compound 0.8 µM
  relative viability: 0.586
H3255; first compound 2.53 µM
  relative viability: 0.564
HCC-78; first compound 0.08 µM
  relative viability: 0.795
HCC-78; first compound 0.253 µM
  relative viability: 0.564
HCC-78; first compound 0.8 µM
  relative viability: 0.68
HCC-78; first compound 2.53 µM
  relative viability: 0.656
HCC-827; first compound 0.08 µM
  relative viability: 0.341
HCC-827; first compound 0.253 µM
  relative viability: 0.333
HCC-827; first compound 0.8 µM
  relative viability: 0.341
HCC-827; first compound 2.53 µM
  relative viability: 0.343
LC-2-ad; first compound 0.08 µM
  relative viability: 0.66
LC-2-ad; first compound 0.253 µM
  relative viability: 0.816
LC-2-ad; first compound 0.8 µM
  relative viability: 0.718
LC-2-ad; first compound 2.53 µM
  relative viability: 0.781
LCLC-97TM1; first compound 0.08 µM
  relative viability: 0.26
LCLC-97TM1; first compound 0.253 µM
  relative viability: 0.266
LCLC-97TM1; first compound 0.8 µM
  relative viability: 0.229
LCLC-97TM1; first compound 2.53 µM
  relative viability: 0.246
NCI-H1666; first compound 0.08 µM
  relative viability: 0.71
NCI-H1666; first compound 0.253 µM
  relative viability: 0.685
NCI-H1666; first compound 0.8 µM
  relative viability: 0.745
NCI-H1666; first compound 2.53 µM
  relative viability: 0.56
NCI-H1915; first compound 0.08 µM
  relative viability: 0.248
NCI-H1915; first compound 0.253 µM
  relative viability: 0.262
NCI-H1915; first compound 0.8 µM
  relative viability: 0.27
NCI-H1915; first compound 2.53 µM
  relative viability: 0.257
NCI-H2087; first compound 0.08 µM
  relative viability: 0.342
NCI-H2087; first compound 0.253 µM
  relative viability: 0.287
NCI-H2087; first compound 0.8 µM
  relative viability: 0.325
NCI-H2087; first compound 2.53 µM
  relative viability: 0.331
NCI-H2126; first compound 0.08 µM
  relative viability: 0.617
NCI-H2126; first compound 0.253 µM
  relative viability: 0.602
NCI-H2126; first compound 0.8 µM
  relative viability: 0.599
NCI-H2126; first compound 2.53 µM
  relative viability: 0.551
NCI-H2347; first compound 0.08 µM
  relative viability: 0.583
NCI-H2347; first compound 0.253 µM
  relative viability: 0.586
NCI-H2347; first compound 0.8 µM
  relative viability: 0.744
NCI-H2347; first compound 2.53 µM
  relative viability: 0.604
NCI-H23; first compound 0.08 µM
  relative viability: 0.321
NCI-H23; first compound 0.253 µM
  relative viability: 0.286
NCI-H23; first compound 0.8 µM
  relative viability: 0.34
NCI-H23; first compound 2.53 µM
  relative viability: 0.38
NCI-H2405; first compound 0.08 µM
  relative viability: 0.764
NCI-H2405; first compound 0.253 µM
  relative viability: 0.684
NCI-H2405; first compound 0.8 µM
  relative viability: 0.767
NCI-H2405; first compound 2.53 µM
  relative viability: 0.73
NCI-H520; first compound 0.08 µM
  relative viability: 0.62
NCI-H520; first compound 0.253 µM
  relative viability: 0.441
NCI-H520; first compound 0.8 µM
  relative viability: 0.514
NCI-H520; first compound 2.53 µM
  relative viability: 0.575
NCI-H647; first compound 0.08 µM
  relative viability: 0.438
NCI-H647; first compound 0.253 µM
  relative viability: 0.341
NCI-H647; first compound 0.8 µM
  relative viability: 0.448
NCI-H647; first compound 2.53 µM
  relative viability: 0.509
NCI-H650; first compound 0.08 µM
  relative viability: 0.298
NCI-H650; first compound 0.253 µM
  relative viability: 0.297
NCI-H650; first compound 0.8 µM
  relative viability: 0.352
NCI-H650; first compound 2.53 µM
  relative viability: 0.311
NCI-H661; first compound 0.08 µM
  relative viability: 0.557
NCI-H661; first compound 0.253 µM
  relative viability: 0.529
NCI-H661; first compound 0.8 µM
  relative viability: 0.57
NCI-H661; first compound 2.53 µM
  relative viability: 0.552
PC-14; first compound 0.08 µM
  relative viability: 0.267
PC-14; first compound 0.253 µM
  relative viability: 0.198
PC-14; first compound 0.8 µM
  relative viability: 0.287
PC-14; first compound 2.53 µM
  relative viability: 0.265
RERF-LC-KJ; first compound 0.08 µM
  relative viability: 0.699
RERF-LC-KJ; first compound 0.253 µM
  relative viability: 0.558
RERF-LC-KJ; first compound 0.8 µM
  relative viability: 0.708
RERF-LC-KJ; first compound 2.53 µM
  relative viability: 0.634
